Experimental data from patent US11020333B2, “Organic compounds” (Givaudan SA, priority 2016, dated 2021).

Experiment: Determination of GC-odor threshold values (gas chromatograph with sniff port, panel of trained evaluators)
Settings: absolute amount of compound delivered at the sniff port, identical conditions
Text: As used herein, “odor threshold value” means the lowest concentration of a vapour in the air which can be detected by smell. Generally speaking, it can be said that a compound with a low odor threshold value is more powerful than a compound with a high odor threshold value and thus allows the use of very low concentration in a fragrance composition to achieve an olfactory effect.
EXAMPLE 24: DETERMINATION OF GC-ODOR THRESHOLD VALUES
According to standard procedures known to the person skilled in the art, threshold values for volatile perfumery compounds are determined on a gas chromatograph equipped with a sniff port by a panel of trained evaluators. The lowest concentration smelled by each panelist is recorded as the individual threshold value expressed in ng (absolute amount of compound delivered at the sniff port).
Under identical conditions the odor threshold value for the individual compounds was measured.
In the case of CCCc1ccc2c(c1)CC(C)C2=O (centres unmarked) [2-methyl-5-propyl-2,3-dihydro-1H-inden-1-one], the odor threshold value is reported as 0.98 ng.
In the case of C=C(C)Cc1cccc2c1C(=O)C(C)C2 (centres unmarked) [2-methyl-7-(2-methylallyl)-2,3-dihydro-1H-inden-1-one], the odor threshold value is reported as 4.96 ng.
CC1Cc2cccc(C3CC3)c2C1=O (centres unmarked) [7-cyclopropyl-2-methyl-2,3-dihydro-1H-inden-1-one] gave an odor threshold value of 4.31 ng.
With CC(C)Cc1ccc2c(c1)CC(C)C2=O (centres unmarked) [Comparison Example 1, 5-isobutyl-2-methyl-2,3-dihydro-1H-inden-1-one] the odor threshold value was 1.56 ng.
With CCCc1cccc2c1CC(C)C2=O (centres unmarked) [Comparison Example 3, 2-methyl-4-propyl-2,3-dihydro-1H-inden-1-one] the odor threshold value was 6.25 ng.
Work on C=C(C)Cc1cccc2c1CC(C)C2=O (centres unmarked) [Comparison Example 5, 2-methyl-4-(2-methylallyl)-2,3-dihydro-1H-inden-1-one] yielded an odor threshold value of 6.25 ng.
Compound CC1Cc2c(cccc2C2CC2)C1=O (centres unmarked) [Comparison Example 7, 4-cyclopropyl-2-methyl-2,3-dihydro-1H-inden-1-one] has an odor threshold value of 31.7 ng.
With CC(C)Cc1ccc2c(c1)C(=O)C(C)C2 (centres unmarked) [Example 1, 6-isobutyl-2-methyl-2,3-dihydro-1H-inden-1-one] the odor threshold value was 0.06 ng.
Compound CCCc1ccc2c(c1)C(=O)C(C)C2 (centres unmarked) [Example 7, 2-methyl-6-propyl-2,3-dihydro-1H-inden-1-one] has an odor threshold value of 0.04 ng.
CC1Cc2ccc(C3CC3)cc2C1=O (centres unmarked) [Example 11, 6-cyclopropyl-2-methyl-2,3-dihydro-1H-inden-1-one] gave an odor threshold value of 0.46 ng.
C=C(C)Cc1ccc2c(c1)C(=O)C(C)C2 (centres unmarked) [Example 22, 2-methyl-6-(2-methylallyl)-2,3-dihydro-1H-inden-1-one] showed an odor threshold value of 0.24 ng.
